Molecules are shown by their SMILES. Structures can show the parent of a compound that is named as a salt.

These results are taken from patent US9079866B2, “Flap modulators” (JANSSEN PHARMACEUTICA NV, priority 2013, dated 2015).

Experiment [1] relates to leukotriene pathway in human whole blood (LTB4 levels). The experiment in a line: Human whole blood assay (A23187-stimulated LTB4). It is filed as cell-based. The note with it: Homo sapiens, human whole blood diluted 1:1, A23187-stimulated; read-out: LTB4 IC50 1:1. A digest of the protocol: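 Blood (heparin) diluted 1:1 RPMI; compound pre-incubation 15 min, 37° Celsius; A23187 7 μg/mL, 30 min, 37° Celsius; plasma LTB4 by commercial kit. IC50 via 4-parameter equation.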

The next experiment has as its target human FLAP (Homo sapiens (Human), UniProt P20292). The experiment in a line: FLAP binding assay (HTRF format). The note with it: wild type FLAP, HTRF format. A digest of the protocol: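 Samples were run in duplicate on each of two assay plates, the results were averaged, and the signal was expressed as an HTRF ratio.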
A general note: Time-resolved FRET reads energy transfer from a long-lived donor to a nearby acceptor.

human FLAP, sequence (P20292 whole entry): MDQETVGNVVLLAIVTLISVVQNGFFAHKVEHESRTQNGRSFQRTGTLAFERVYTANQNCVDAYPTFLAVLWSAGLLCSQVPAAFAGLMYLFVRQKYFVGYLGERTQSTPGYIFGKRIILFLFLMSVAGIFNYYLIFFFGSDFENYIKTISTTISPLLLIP

With `CC(C)(C)NS(=O)(=O)c1ccccc1-c1ccc(-c2ccc(N)cn2)c(F)c1` [Example 427, 4′-(5-Aminopyridin-2-yl)-N-tert-butyl-3′-fluorobiphenyl-2-sulfonamide], the IC50 (as a rule, the point on the concentration scale where inhibition reaches its midpoint) in experiment [1] was determined as 1600 nM. Moreover, the Ki – broadly, a measure of affinity in units of concentration, obtained from inhibition or displacement – on human FLAP was determined as 54 nM.

On to `CC(C)(C)NS(=O)(=O)c1ccccc1-c1ccc(-c2cnc(N)c(N)n2)c(F)c1` [Example 428, N-tert-Butyl-4′-(5,6-diaminopyrazin-2-yl)-3′-fluorobiphenyl-2-sulfonamide], for which the IC50 in experiment [1] stood at 4 nM. The same compound registered a Ki on human FLAP of 4 nM.

`CC(C)(C)NS(=O)(=O)c1ccccc1-c1ccc(-c2cnc3[nH]c(=O)[nH]c3n2)c(F)c1` [Example 429, N-tert-Butyl-3′-fluoro-4′-(2-oxo-2,3-dihydro-1H-imidazo[4,5-b]pyrazin-5-yl)biphenyl-2-sulfonamide]: the IC50 in experiment [1] stood at 209 nM. At human FLAP, the affinity, expressed as Ki, was 13 nM.

On to `CC(C)(C)NS(=O)(=O)c1ccccc1-c1ccc(-c2cnc3c(c2)CCN3)c(F)c1` [Example 431, N-tert-Butyl-4′-(2,3-dihydro-1H-pyrrolo[2,3-b]pyridin-5-yl)-3′-fluorobiphenyl-2-sulfonamide], for which, in experiment [1], the IC50 was determined as 9 nM. At human FLAP, this compound yielded an inhibitory constant (Ki) of 1 nM.

With `CC(C)(C)NS(=O)(=O)c1ccccc1-c1ccc(-c2cnc3[nH]cnc3c2)c(F)c1` [Example 432, N-tert-Butyl-3′-fluoro-4′-(3H-imidazo[4,5-b]pyridin-6-yl)biphenyl-2-sulfonamide], the IC50 in experiment [1] worked out at 19 nM. On human FLAP, this compound showed a Ki of 4 nM.

For the compound `COc1nc(-c2ccc(-c3ccccc3S(=O)(=O)NC(C)(C)C)cc2F)cnc1N` [Example 433, 4′-(5-Amino-6-methoxypyrazin-2-yl)-N-tert-butyl-3′-fluorobiphenyl-2-sulfonamide], the IC50 in experiment [1] is 25 nM. The affinity on human FLAP, expressed as Ki, was 1 nM.

`CC(C)(C)NS(=O)(=O)c1ccccc1-c1ccc(-c2cnc(N)c(C#N)n2)c(F)c1` [Example 434, 4′-(5-Amino-6-cyanopyrazin-2-yl)-N-tert-butyl-3′-fluorobiphenyl-2-sulfonamide]: the IC50 in experiment [1] was determined as 36 nM. This compound also gave a Ki at human FLAP of 1 nM.

`CC(C)(C)NS(=O)(=O)c1ccccc1-c1ccc(-c2ncc(N)nc2C#N)c(F)c1` [Example 435, 4′-(5-Amino-3-cyanopyrazin-2-yl)-N-tert-butyl-3′-fluorobiphenyl-2-sulfonamide]: the concentration for half-maximal inhibition (IC50) in experiment [1] came out at 166 nM. This compound gave a Ki at human FLAP of 9 nM.

Turning to `CC(C)(C)NS(=O)(=O)c1ccccc1-c1ccc(-c2cnc(N)cc2C#N)c(F)c1` [Example 436, 4′-(6-Amino-4-cyanopyridin-3-yl)-N-tert-butyl-3′-fluorobiphenyl-2-sulfonamide], in experiment [1], the IC50 was 3280 nM. At human FLAP, the affinity, expressed as Ki, was 308 nM.

For the compound `CC(C)(C)NS(=O)(=O)c1ccccc1-c1ccc(-c2ccc(N)nc2C#N)c(F)c1` [Example 437, 4′-(6-Amino-2-cyanopyridin-3-yl)-N-(tert-butyl)-3′-fluoro-[1,1′-biphenyl]-2-sulfonamide], the half-maximal inhibitory concentration (IC50) in experiment [1] stood at 381 nM. The Ki on human FLAP came to 23 nM.

Regarding `CC(C)(C)NS(=O)(=O)c1ccccc1-c1ccc(-c2nnc(N)s2)c(F)c1` [Example 438, 4′-(5-Amino-1,3,4-thiadiazol-2-yl)-N-(tert-butyl)-3′-fluoro-[1,1′-biphenyl]-2-sulfonamide], the IC50 in experiment [1] turned out to be 17 nM. Further, affinity on human FLAP was put at a Ki of 1 nM.

Take `C[C@H](CO)NS(=O)(=O)c1ccccc1-c1ccc(-c2nnc(N)s2)c(F)c1` [Example 439, (R)-4′-(5-Amino-1,3,4-thiadiazol-2-yl)-3′-fluoro-N-(1-hydroxypropan-2-yl)-[1,1′-biphenyl]-2-sulfonamide]: the IC50 in experiment [1] was found to be 300 nM. The compound further came in with a Ki at human FLAP of 63 nM.

As to `Nc1nnc(-c2ccc(-c3ccccc3S(=O)(=O)N3CCS(=O)(=O)CC3)cc2F)s1` [Example 440, 4-((4′-(5-Amino-1,3,4-thiadiazol-2-yl)-3′-fluoro-[1,1′-biphenyl]-2-yl)sulfonyl)thiomorpholine 1,1-dioxide], the IC50 in experiment [1] stood at 215 nM. At human FLAP, the Ki amounted to 31 nM.

As to `CC(C)(C)NS(=O)(=O)c1ccccc1-c1ccc(-c2cnc(N)c(Cl)n2)c(F)c1` [Example 441, 4′-(5-Amino-6-chloropyrazin-2-yl)-N-tert-butyl-3′-fluorobiphenyl-2-sulfonamide], in experiment [1], the IC50 came out at 6 nM. Further, the affinity on human FLAP corresponds to a Ki of 1 nM.

Consider `CC(C)(C)NS(=O)(=O)c1ccccc1-c1ccc(-c2cnc(N)c(Br)n2)c(F)c1` [Example 442, 4′-(5-Amino-6-bromopyrazin-2-yl)-N-tert-butyl-3′-fluorobiphenyl-2-sulfonamide], for which the IC50 in experiment [1] was 9 nM. Further, the Ki at human FLAP was 1 nM.

For `N#Cc1nc(N)ccc1-c1ccc(-c2ccccc2S(=O)(=O)C2CC2)cc1F` [Example 443, 6-Amino-3-(2′-(cyclopropylsulfonyl)-3-fluoro-[1,1′-biphenyl]-4-yl)picolinonitrile], the IC50 in experiment [1] stood at 3330 nM. This compound also returned a Ki on human FLAP of 343 nM.

For the compound `CC(C)(C)NS(=O)(=O)c1ccccc1-c1ccc(-c2ccn3cnnc3c2)c(F)c1` [Example 444, N-tert-Butyl-3′-fluoro-4′-[1,2,4]triazolo[4,3-a]pyridin-7-ylbiphenyl-2-sulfonamide], in experiment [1], the IC50 was above 10000 nM. The affinity on human FLAP corresponds to a Ki of 183 nM.

For `Cc1nc(-c2ccc(-c3ccccc3S(=O)(=O)NC(C)(C)C)cc2F)cnc1N` [Example 445, 4′-(5-Amino-6-methylpyrazin-2-yl)-N-tert-butyl-3′-fluorobiphenyl-2-sulfonamide], the IC50 in experiment [1] is 8 nM. For the same compound, at human FLAP, the Ki was found to be 1 nM.

For `CC(C)(C)NS(=O)(=O)c1ccccc1-c1ccc(-c2cnc3[nH]cnc3n2)c(F)c1` [Example 447, N-tert-Butyl-3′-fluoro-4′-(1H-imidazo[4,5-b]pyrazin-5-yl)biphenyl-2-sulfonamide], in experiment [1], the IC50 is 144 nM. On human FLAP, this compound registered a Ki of 3 nM.

As to `CC(C)(C)NS(=O)(=O)c1ccccc1-c1ccc(-c2cnc(N)c(N)c2)c(F)c1` [Example 448, N-tert-Butyl-4′-(5,6-diaminopyridin-3-yl)-3′-fluorobiphenyl-2-sulfonamide], the IC50 in experiment [1] is 112 nM. For the same compound, the Ki on human FLAP worked out at 10 nM.

`CNS(=O)(=O)c1ccccc1-c1ccc(-c2cnc(N)c(C)n2)c(F)c1` [Example 449, 4′-(5-Amino-6-methylpyrazin-2-yl)-3′-fluoro-N-methylbiphenyl-2-sulfonamide]: the IC50 in experiment [1] turned out to be 79 nM. On human FLAP, the Ki turned out to be 22 nM.

Consider `CC(C)(C)NS(=O)(=O)c1ccccc1-c1ccc(-c2cnc(N)c(C#N)c2)c(F)c1` [Example 450, 4′-(6-Amino-5-cyanopyridin-3-yl)-N-tert-butyl-3′-fluorobiphenyl-2-sulfonamide trifluoroacetic acid salt], for which, in experiment [1], the IC50 was 340 nM. In addition, on human FLAP, affinity was put at a Ki of 74 nM.

Turning to `CC(C)(C)NS(=O)(=O)c1ccccc1-c1ccc(-c2cnc(N)c(Cl)c2)c(F)c1` [Example 451, 4′-(6-Amino-5-chloropyridin-3-yl)-N-tert-butyl-3′-fluorobiphenyl-2-sulfonamide trifluoroacetic acid salt], the IC50 in experiment [1] stood at 38 nM. This compound had a Ki on human FLAP of 2 nM.
